Source: ChEMBL document CHEMBL3352429, “A review on recent developments of indole-containing antiviral agents” (Eur J Med Chem, 2015)
≈ marks a conversion by molar mass, not a printed value. Where a name gives a salt, the structure may show the parent alone.

How the values were obtained:
[1] = molecular target: T1, Human immunodeficiency virus type 1 integrase (Human immunodeficiency virus 1, UniProt Q7ZJM1); experiment: Inhibition of HIV-1 integrase
[2] = system: Human immunodeficiency virus 1; experiment: Antiviral activity against wild type HIV1 3B infected in human C8166 cells assessed as cytopathic effect by counting the number of syncytia; type: functional, organism-based; details: Human immunodeficiency virus 1, 3B
[3] = Therapeutic index, ratio of CC50 for human C8166 cells to EC50 for HIV-1 3B; type: cell-based; details: read-out: Ratio CC50/EC50
[4] = Inhibition of HIV-1 integrase LEDGF/p75 (unknown origin) interaction; set-up: species or system Human immunodeficiency virus 1
[5] = system: Human immunodeficiency virus 1; experiment: Antiviral activity against wild type HIV1 3B infected in human MT-2 cells assessed as protection of infected cells by MTT colorimetric method; type: functional, organism-based; details: Human immunodeficiency virus 1, 3B, MT2
[6] = system: Human immunodeficiency virus 1; experiment: Antiviral activity against HIV-1 3B infected in human TZM-bl cells; type: functional, organism-based; details: Human immunodeficiency virus 1, 3B
[7] = Cytotoxicity against human TZM-bl cells; type: cell-based
[8] = Selectivity index, ratio of CC50 for human TZM-bl cells to EC50 for HIV-1 3B; type: toxicity, cell-based; details: read-out: Ratio CC50/EC50
[9] = molecular target: T1, Human immunodeficiency virus type 1 integrase; experiment: Inhibition of HIV-1 integrase strand transfer activity
[10] = system: Human immunodeficiency virus 1; experiment: Antiviral activity against HIV1; type: functional, organism-based
Human alphaherpesvirus 1 = experiment: Antiviral activity against Herpes simplex virus type 1; type: functional, organism-based
Human alphaherpesvirus 2 = experiment: Antiviral activity against Herpes simplex virus type 2; type: functional, organism-based
[11] = system: Human immunodeficiency virus 1; experiment: Antiviral activity against HIV1 infected in human peripheral blood leukocyte cells assessed as inhibition of replication; type: functional, organism-based
[12] = Cytotoxicity against human peripheral blood leukocyte cells at 100 uM; type: cell-based
[13] = read-out: ID50 (the source's name)

T1 sequence (Q7ZJM1 whole entry): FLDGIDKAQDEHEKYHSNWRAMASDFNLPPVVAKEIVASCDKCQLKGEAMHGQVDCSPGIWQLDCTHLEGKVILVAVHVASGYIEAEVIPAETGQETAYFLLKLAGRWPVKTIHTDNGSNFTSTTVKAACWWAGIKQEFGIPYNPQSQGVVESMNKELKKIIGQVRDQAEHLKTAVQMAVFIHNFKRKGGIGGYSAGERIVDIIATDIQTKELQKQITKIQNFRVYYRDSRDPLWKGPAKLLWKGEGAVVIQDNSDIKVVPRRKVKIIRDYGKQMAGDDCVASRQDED

Cc1cc(C)cc(Cn2cc(C(=O)/C=C(\O)C(=O)O)c3c(O)cccc32)c1
IC50 [1]: 3500 nM

O=[N+]([O-])c1ccccc1-n1ccc2ccccc21
EC50 [2]: 7.88 µg/mL (≈ 33.1 µM) | selectivity ratio [3]: 24.6

COc1cccc2c1c(C(=O)/C=C(\O)C(=O)O)cn2Cc1ccc(F)cc1
IC50 [4]: 36000 nM

O=c1ccn(CCOc2ccccc2Oc2cccc3[nH]ccc23)c(=O)[nH]1
EC50 [5]: 85 nM

CCOC(=O)C(O)(c1c[nH]c2ccc([N+](=O)[O-])cc12)C(F)(F)F (stereo not given)
EC50 [6]: 19 nM | CC50 [7]: 211000 nM | selectivity ratio [8]: 11.1

O=[N+]([O-])c1ccc2c(ccn2-c2ccccc2[N+](=O)[O-])c1
EC50 [2]: 7.88 µg/mL (≈ 27.8 µM) | selectivity ratio [3]: 24.6

Cc1cn(-c2ccc([N+](=O)[O-])cc2)c2ccccc12
EC50 [2]: 7.88 µg/mL (≈ 31.2 µM) | selectivity ratio [3]: 24.6

COc1cccc2c1c(C(=O)/C=C(\O)C(=O)O)cn2Cc1cc(C)cc(C)c1
IC50 [9]: 5490 nM | EC50 [10]: 4630 nM

CC(C)CC(=O)[C@@H](O)Cc1c[nH]c2ccccc12
IC50 (Human alphaherpesvirus 1; [13]): 1.5 µg/mL (≈ 6.11 µM) | IC50 (Human alphaherpesvirus 2; [13]): 1.5 µg/mL

C[C@H]1c2nc(N)[nH]c2[C@]2(O)C[C@H]1c1c(-c3cnc(-c4c[nH]c5cc(Br)ccc45)c(=O)[nH]3)c[nH]c1C2=O
EC50 (Human alphaherpesvirus 1): 95800 nM | EC50 [10]: 910 nM

O=C(/C=C/c1c[nH]c2c(O)cccc12)N/C=C/c1c[nH]c2ccccc12
IC50 (Human alphaherpesvirus 2; read-out: IC50): 1000 nM

COc1ccc2c(c1)N=CN1CCc3c([nH]c4ccccc34)C3=NCC[C@@]321
EC50 [10]: 20 nM

COc1ccc2c3c([nH]c2c1)C1=NCC[C@]12c1ccccc1N=CN2CC3
EC50 [10]: 950 nM

CCNc1cccnc1N1CCN(C(=O)c2cc3cc(OC)ccc3[nH]2)CC1 [ATEVIRDINE MESYLATE]
IC50 [11]: 1 nM | Activity [12]: 50%

O=C(/C=C/c1c[nH]c2ccccc12)N/C=C/c1c[nH]c2ccccc12 [CHONDRIAMIDE A]
IC50 (Human alphaherpesvirus 2; read-out: IC50): 1000 nM

O=C(/C=C/c1c[nH]c2ccccc12)N/C=C\c1c[nH]c2ccccc12 [CHONDRIAMIDE C]
IC50 (Human alphaherpesvirus 2; read-out: IC50): 1000 nM
